The values below come from US20040110846A1, “Perylenequinones for use with immunotherapy agents” (priority 2004, published 2004).

One data set concerns EMT6 murine mastocytoma. Kind of data set: Sonosensitizing potential: LD50 in EMT6 cells in vitro for a fixed dose of ultrasound. It counts as cell-based. An excerpt: (§1) As used herein, “photopotentiation factor” refers to the property of the compound(s) to exert light- or sound-mediated toxicity in excess of its (their) inherent unactivated toxicity. In a preferred embodiment of the invention, the activation factor may be calculated as the ratio of the LD50 of cells treated without activation to the LD50 of the cells treated with an activated compound (drug LD50 divided by activated drug LD50). Where the term “LD50” has been used above, the term “IC50” may be substituted, to address the bioassays that concern metabolic activity rather than the endpoint of lethality, loss of reproductive capability, or clonogenic death. The relative photoactivation efficiency of a compound may also be determined using a clonogenic assay, an assay that is well known to those skilled in the art.
(§2) for a fixed dose of light or ultrasound

A further data set relates to EMT6 murine. Kind of data set: Photosensitizing potential: LD50 in EMT6 cells in vitro for a fixed dose of light. It is filed as cell-based.
Source text: as §1, §2

The nature of data set [1]: Absorption (extinction coefficient) in the red spectral region compared with HB. It counts as physicochemical. The text has this:
A hypocrellin derivative of the present invention also includes 2-butylamino-2-demethoxy-hypocrellin B (2-BA-2-DMHB). […] Compared with its parent compound HB, its absorption bands extend toward longer wavelengths. The extinction coefficient at 583 nm was 2.5-fold as much as HB at 548 nm, and at 621 nm was over 3.8-fold as much as HB at 580 nm.

With “2-(N,N-dimethyl-amino) propylamine-Hypocrellin B [HBDD-R1]”, in the data set on EMT6 murine mastocytoma, the “Sonosensitizing Potential (Molar Concentration which exerts LD50)” value (from here on “Sonosensitizing Potential”) was found to be 1.0 mM.

Consider “2-butylamino-2-demethoxy-Hypocrellin B [DMHBb]”, for which, in the data set with EMT6 murine mastocytoma, the “Sonosensitizing Potential” value was determined as 0.1 mM. The “Photosensitizing Potential (Molar Concentration which exerts LD50)” value (from here on “Photosensitizing Potential”) in the data set on EMT6 murine was 0.1 µM. Moreover, the “extinction coefficient at 583 nm relative to HB at 548 nm” value in data set [1] (583 nm vs HB at 548 nm) worked out at 2.5 fold. Also, the “extinction coefficient at 621 nm relative to HB at 580 nm” value in data set [1] (621 nm vs HB at 580 nm) is “over 3.8 fold”.

For the substance 2-morpholino-ethylaminated HB [HBAM-R1], the “Sonosensitizing Potential” value with EMT6 murine mastocytoma is given as “None”. The “Photosensitizing Potential” value in the data set with EMT6 murine came out at 4.0 µM.

For Demethylated-HB [DMHBa], the “Sonosensitizing Potential” value with EMT6 murine mastocytoma was 1.0 mM. The “Photosensitizing Potential” value in the data set with EMT6 murine amounted to 3.0 µM.

On to Ethylenediamne-Hypocrellin B [HBED-R2], for which the “Sonosensitizing Potential” value in the data set with EMT6 murine mastocytoma was “None”. Moreover, in the data set with EMT6 murine, the “Photosensitizing Potential” value stood at 4.0 µM.

Take Hypocrellin A [HA, reference compound]: the “Sonosensitizing Potential” value in the data set on EMT6 murine mastocytoma is reported as “None”. Also, in the data set with EMT6 murine, the “Photosensitizing Potential” value was 4.0 µM.

Consider Methylamine-Hypocrellin B [HBMA-IV], for which the “Sonosensitizing Potential” value in the data set on EMT6 murine mastocytoma is “None”. Besides, in the data set with EMT6 murine, the “Photosensitizing Potential” value was determined as 1.0 µM.
